Measured values published in the supplement of paper PMC10949913.

Tests used:
Test in all cases: area under concentration-response curve (viability) (AUC (a.u.)); higher = less active
Conditions in all cases: 48 h
CU-ACC1 = tested on: CU-ACC1
Procedure, shortened: (§1)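 Three adrenocortical carcinoma cell lines were seeded at 500–1,000 cells/well in 5 µL medium in 1,536-well plates. 23 nL of each MIPE 5.0 library compound was added at 11 concentrations. After 48 h (per the protocol name), CellTiter-Glo was added for 15 minutes at room temperature and luminescence was read. Signals were normalised per plate to vehicle and empty-well controls. AC50 and area under the curve came from fitted concentration-response curves, keeping only inhibitory or non-responding curve classes.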

CU-ACC2 = tested on: CU-ACC2
Procedure, shortened: as §1

NCI-H295R = tested on: NCI-H295R
Procedure, shortened: as §1

| Compound | area under concentration-response curve (CU-ACC1) | area under concentration-response curve (CU-ACC2) | area under concentration-response curve (NCI-H295R) |
| --- | --- | --- | --- |
| C[S+](=O)([O-])N(Cc1ccco1)CC(O)Cn1c2ccccc2c2ccccc21 (stereo not given) | 477 | 515 | 473 |
| CC(C)(CO)[C@@H](O)C(=O)NCCC(=O)O | 506 | 487 | 509 |
| C[C@]\12CCC(=O)\C=C1[C@@H]3C[C@@H]3[C@@H]4[C@@H]2CC[C@@]5(C)[C@H]4[C@@H]6C[C@@H]6[C@@]57CCC(=O)O7 | 509 | 602 | 549 |
| O=C1\C=C(OC2=C(C=CC=C12)C3=CC=CC4=C3SC5=C4C=CC=C5)\N6CCOCC6 | 374 | 557 | 497 |
| CC[C@H]1OC(=O)[C@H](C)C(=O)[C@H](C)[C@@H](O[C@H]2O[C@H](C)C[C@H](N(C)C)[C@H]2O)[C@](C)(OC)C[C@@H](C)C(=O)[C@H](C)[C@H]2N(CCCCn3cnc(-c4cccnc4)c3)C(=O)O[C@]12C | 436 | 452 | 419 |
| C#CCN(C)[C@H](C)Cc1ccccc1 | 467 | 457 | 434 |
| C[C@@H]\1/N=C(/N)NC(=N1)\N(C)C | 407 | 596 | 549 |
| CC(C)(C)OC(=O)N[C@H]1CCCCC/C=C\[C@@H]2C[C@@]2(C(=O)N[S+](=O)([O-])C2CC2)NC(=O)[C@@H]2C[C@@H](OC(=O)N3Cc4cccc(F)c4C3)CN2C1=O | 414 | 503 | 472 |
| O=C(NC[C@H](O)CN1CCc2ccccc2C1)c1ccnc(NC2CCC2)c1 |  | 535 | 539 |
| NC(=O)C/1=C(O)/[C@]2(O)[C@@H](C[C@@H]\3CC4=C(C(=CC=C4)O)\C(=C3C2=O)O)CC1=O |  | 640 | 586 |
| CC(=O)Oc1ccccc1C(=O)Nc1ncc([N+](=O)[O-])s1 |  | 634 | 590 |
| CN(C(Cc1ccc(OS(=O)(=O)c2cccc3cnccc23)cc1)C(=O)N1CCN(c2ccccc2)CC1)S(=O)(=O)c1cccc2cnccc12 (stereo not given) |  | 627 | 576 |
| NC/1=N/C(=O)N/C=C1F |  | 633 | 595 |
| O=C(O)c1cnn(-c2nc3cc(Cl)c(OC(F)(F)F)cc3[nH]2)c1 |  | 605 | 548 |
| C[C@@H]1Cc2c([nH]c3ccccc23)[C@@H](c2c(F)cc(/C=C/C(=O)O)cc2F)N1CC(C)(C)F |  | 615 | 593 |
| CN1C(=O)\C(=C/C2=C1N=C(NC3CCOCC3)N=C2)OC4=C(F)C=C(F)C=C4 |  | 611 | 565 |
| COc1ccc2[nH]c([S+]([O-])Cc3ncc(C)c(OC)c3C)nc2c1 (stereo not given) |  | 624 | 576 |
| Nc1nc(NCCNc2ncc(-n3ccnc3)c(-c3ccc(Cl)cc3Cl)n2)ccc1[N+](=O)[O-] |  | 485 | 536 |
| NC/1=N/C2=C(N=C[N]2[C@H]3C[C@H](O)[C@@H](CO)C3=C)C(=O)N1 |  | 589 | 521 |
| NCCOc1cc(C(=O)Nc2cc(OCCN)c3ccccc3n2)nc(C(=O)Nc2cc(OCCN)c3ccccc3n2)c1 |  | 454 | 507 |
| CC[C@H](NC1=C2[NH]C=NC2=NC=N1)/C3=C(/C(=O)C4=CC=CC=C4O3)C5=CC=CC(=C5)F |  | 432 | 488 |
